For 35 compounds, IC50 and IC90 results are on record in ChEMBL document CHEMBL4483862, “Open-source discovery of chemical leads for next-generation chemoprotective antimalarials” (2018).

Each structure is given as a SMILES string.

Broadly, the IC50 is the concentration at which inhibition is half-maximal. For orientation: IC90 means the concentration at which the effect reaches the 90% level.

This assay relates to Plasmodium berghei. Kind of assay: Luciferase/luciferin-expressing antifolate-resistant parasites were used to infect a culture of HepG2 cells that were pre-incubated with compounds. Infected hepatocytes emit light due to the luciferase reaction. Assay results are presented as the percent inhibition of light emission compared to control. […]. It counts as functional. As to conditions: sporozoite; for IC90: read-out: LUCIFERASE INFECTION ASSAY - IC90.

[1] abbreviates: read-out: LUCIFERASE INFECTION ASSAY - IC50.

As for `O=C(c1c[nH]c(-c2ccccn2)c1)c1cc(Cl)ccc1O`, the IC90 is > 10 µM. For the same compound, the IC50 (HEPG2TOX_HILL_SLOPE 1.74, HEPG2TOX_R_SQUARED 0.992, PBLUC_HILL_SLOPE 2.29, PBLUC_R_SQUARED 0.459, read-out: LUCIFERASE INFECTION ASSAY - IC50) was 5.42 µM.
As for `COc1cc(/C=C2\SC(=O)N(CCNC(=O)c3cnccn3)C2=O)ccc1OC(F)F`, the IC90 was > 10 µM. Besides, under “HEPG2TOX_HILL_SLOPE 8.8, HEPG2TOX_R_SQUARED 0.871, PBLUC_HILL_SLOPE 1.47, PBLUC_R_SQUARED 0.589, read-out: LUCIFERASE INFECTION ASSAY - IC50”, the IC50 is > 10 µM.
On to `CC(c1ccccc1)n1c(SCCSc2cc(Cl)ccc2Cl)nc2ccccc2c1=O` (stereo not given), for which the IC90 is > 10 µM. Moreover, the IC50 (PBLUC_HILL_SLOPE 4.25, PBLUC_R_SQUARED 0.473, read-out: LUCIFERASE INFECTION ASSAY - IC50) stood at 6.21 µM.
As for `CCn1nc(C(=O)NCc2ccc(OC)cc2)c2c1CCN(C(=O)c1cc(C)n[nH]1)C2`, the IC90 is 3.69 µM. Moreover, the IC50 (PBLUC_HILL_SLOPE 2.57, PBLUC_R_SQUARED 0.68, read-out: LUCIFERASE INFECTION ASSAY - IC50) came out at 1.57 µM.
`CNS(=O)(=O)c1ccc(CNc2ncnc3cc(-c4ccc(OC)cc4)sc23)s1`: the IC90 turned out to be 2.1 µM. Besides, under setting [1], the IC50 worked out at 0.653 µM.
Take `CCN(CC)CCNC(=O)c1ccc(NC(=O)c2cccc(S(=O)(=O)N3CCc4ccccc43)c2)cc1`: the IC90 was > 10 µM. For the same compound, the IC50 (PBLUC_HILL_SLOPE 8.86, PBLUC_R_SQUARED 0.0114, read-out: LUCIFERASE INFECTION ASSAY - IC50) was > 10 µM.
In the case of `CCCCNC(=O)c1c(NC(=O)c2ccc(OC)cc2)nc2ccc(C)cn12`, the IC90 was found to be 8.55 µM. In addition, the IC50 (HEPG2TOX_HILL_SLOPE 7.85, HEPG2TOX_R_SQUARED 0.829, PBLUC_HILL_SLOPE 17, PBLUC_R_SQUARED 0.0919, read-out: LUCIFERASE INFECTION ASSAY - IC50) stood at 7.51 µM.
As to `COc1cc(C2NCC(c3ccc(Cl)cc3Cl)c3c2[nH]c2ccccc32)ccc1OCC(C)C` (stereo not given), the IC90 was 3.76 µM. Further, the IC50 (PBLUC_HILL_SLOPE 12.5, PBLUC_R_SQUARED 0.54, read-out: LUCIFERASE INFECTION ASSAY - IC50) was found to be 3.15 µM.
On to `N#Cc1ccc(/C=C(\c2nc3ccccc3[nH]2)c2nc3ccccc3s2)cc1`, for which the IC90 was found to be 1.53 µM. Also, for the setting “FFLUC_HILL_SLOPE 15, FFLUC_R_SQUARED 0.447, HEPG2TOX_HILL_SLOPE 15.3, HEPG2TOX_R_SQUARED 0.806, PBLUC_HILL_SLOPE 8.27, PBLUC_R_SQUARED 0.505, read-out: LUCIFERASE INFECTION ASSAY - IC50”, the IC50 was determined as 1.17 µM.
Consider `COc1ccc(C(CNC(=O)Cc2coc3c(C)c(C)ccc23)N(C)C)cc1` (stereo not given), for which the IC90 came out at 3.36 µM. Further, the IC50 (PBLUC_HILL_SLOPE 2.38, PBLUC_R_SQUARED 0.44, read-out: LUCIFERASE INFECTION ASSAY - IC50) is 1.33 µM.
Turning to `Fc1ccc(COc2ccc(Cl)cc2CNCc2ccccn2)cc1`, the IC90 was > 9.25 µM. Further, for the setting “PBLUC_HILL_SLOPE 3.23, PBLUC_R_SQUARED 0.405, read-out: LUCIFERASE INFECTION ASSAY - IC50”, the IC50 came to 6.55 µM.
`COc1cc(-c2cnc3cnc(-c4ccsc4)cn23)cc(OC)c1OC`: the IC90 came to 1.45 µM. Further, the IC50 (FFLUC_HILL_SLOPE 0.573, FFLUC_R_SQUARED 0.0155, HEPG2TOX_HILL_SLOPE 1.65, HEPG2TOX_R_SQUARED 0.878, PBLUC_HILL_SLOPE 3.42, PBLUC_R_SQUARED 0.766, read-out: LUCIFERASE INFECTION ASSAY - IC50) amounted to 0.761 µM.
As to `NC(=O)C1CCN(c2cc(-c3nc4ccccc4s3)c3ccccc3n2)CC1`, the IC90 was > 10 µM. Also, the IC50 (PBLUC_HILL_SLOPE 7.92, PBLUC_R_SQUARED 0.452, read-out: LUCIFERASE INFECTION ASSAY - IC50) turned out to be 8.36 µM.
Take `CC(=O)NC1=C(N(C)C2CCS(=O)(=O)C2)C(=O)c2ccccc2C1=O` (stereo not given): the IC90 is > 10 µM. Also, the IC50 (FFLUC_HILL_SLOPE 10.5, FFLUC_R_SQUARED 0.371, PBLUC_HILL_SLOPE 1.29, PBLUC_R_SQUARED 0.482, read-out: LUCIFERASE INFECTION ASSAY - IC50) was found to be 5.96 µM.
As for `Nc1nnc(SCc2c(F)cccc2Cl)[nH]1`, the IC90 was > 12.8 µM. Further, the IC50 under setting [1] is > 12.8 µM.
Take `O=C(Nc1ccc(N2CCCCCC2)cc1)c1ccc[nH]1`: the IC90 amounted to 2.88 µM. Further, for the setting “PBLUC_HILL_SLOPE 1.36, PBLUC_R_SQUARED 0.768, read-out: LUCIFERASE INFECTION ASSAY - IC50”, the IC50 came out at 0.569 µM.
As to `Cc1cccc(Cn2nc(C(C)(C)C)cc2-c2nnc(SCC(=O)c3ccccc3)o2)c1`, the concentration for an effect of 90% (IC90) was > 7.39 µM. The IC50 (FFLUC_HILL_SLOPE 16.7, FFLUC_R_SQUARED 0.464, PBLUC_HILL_SLOPE 10.3, PBLUC_R_SQUARED 0.0963, read-out: LUCIFERASE INFECTION ASSAY - IC50) is > 7.39 µM.
`O=C(CSCCS(=O)(=O)c1ccc(Cl)cc1)Nc1cc(C(F)(F)F)cc(C(F)(F)F)c1`: the IC90 is > 6.52 µM. The IC50 (FFLUC_HILL_SLOPE 10.6, FFLUC_R_SQUARED 0.485, read-out: LUCIFERASE INFECTION ASSAY - IC50) is > 6.52 µM.
Regarding `CCOC(=O)c1cnn(-c2ccc(Cc3ccc(-n4ncc(C(=O)OCC)c4C)cc3)cc2)c1C`, the IC90 was > 6.98 µM. Under “PBLUC_HILL_SLOPE 1.32, PBLUC_R_SQUARED 0.439, read-out: LUCIFERASE INFECTION ASSAY - IC50”, the IC50 was found to be 2.06 µM.
Take `CCCCCCCCCCCCN1C(=O)CSC1c1cccnc1` (stereo not given): the IC90 was > 9.47 µM. Under setting [1], the IC50 is > 9.47 µM.
On to `Cc1cc(C)n2nc(SCC(=O)c3c(-c4ccccc4)[nH]c4ccccc34)nc2n1`, for which the IC90 turned out to be 5.12 µM. In addition, the IC50 (PBLUC_HILL_SLOPE 3.17, 7.12, PBLUC_R_SQUARED 0.979, 0.666, read-out: LUCIFERASE INFECTION ASSAY - IC50) was found to be 4.67 µM.
With `N#Cc1ccsc1NC(=O)CN1CCN(CC(=O)Nc2ccc(Cl)c(C(F)(F)F)c2)CC1`, the IC90 was > 10 µM. Besides, where the note is “PBLUC_HILL_SLOPE 1.73, PBLUC_R_SQUARED 0.28, read-out: LUCIFERASE INFECTION ASSAY - IC50”, the IC50 turned out to be 5.03 µM.
Consider `Cc1cc(NC(=O)c2cc(-c3cccs3)nc3ccccc23)n(-c2ccccn2)n1`, for which the IC90 amounted to 4.61 µM. Also, the IC50 (HEPG2TOX_HILL_SLOPE 1.34, HEPG2TOX_R_SQUARED 0.908, PBLUC_HILL_SLOPE 3.47, PBLUC_R_SQUARED 0.53, read-out: LUCIFERASE INFECTION ASSAY - IC50) was 2.45 µM.
Turning to `FC(F)(F)Oc1cccc(-c2cnc3sc(NCCN4CCOCC4)nn23)c1`, the IC90 is > 7.98 µM. The IC50 (PBLUC_HILL_SLOPE 2.27, PBLUC_R_SQUARED 0.551, read-out: LUCIFERASE INFECTION ASSAY - IC50) was 5.39 µM.
`N#CC(Cc1ccccc1)Sc1nnc(-c2ccccc2)n1-c1ccccc1` (stereo not given): the IC90 is > 10 µM. Moreover, under “FFLUC_HILL_SLOPE 0.339, FFLUC_R_SQUARED 0.0197, read-out: LUCIFERASE INFECTION ASSAY - IC50”, the IC50 was > 10 µM.
For `CCOC(=O)c1c(NC(=O)C(C)OC(=O)c2ccccc2Sc2ccccc2C#N)sc2c1CCCC2` (stereo not given), the IC90 was > 10 µM. The IC50 under setting [1] is > 10 µM.
Take `Cc1c(C)c(C)c(S(=O)(=O)Nc2ccc(Oc3ccc(Cl)cc3)cc2)c(C)c1C`: the IC90 is > 7.68 µM. Moreover, under “PBLUC_HILL_SLOPE 11, PBLUC_R_SQUARED 0.0118, read-out: LUCIFERASE INFECTION ASSAY - IC50”, the IC50 was > 7.68 µM.
Take `CC(C)(C)C(=O)/C=c1\[nH]c(=O)/c(=C\c2ccc(Oc3ccc(F)cc3)c([N+](=O)[O-])c2)s1`: the IC90 is > 10 µM. Besides, the IC50 under setting [1] is > 10 µM.
Turning to `CN(Cc1ccc(C(F)(F)F)cc1)C(=O)c1cc(Br)ccc1O`, the IC90 is > 10 µM. Moreover, the IC50 (FFLUC_HILL_SLOPE 1.16, FFLUC_R_SQUARED 0.0567, read-out: LUCIFERASE INFECTION ASSAY - IC50) was > 10 µM.
For `CC(C)(C)CC(=O)Nc1ccc(-c2nc3ccccc3[nH]2)cc1`, the IC90 is 6 µM. Besides, for the setting “HEPG2TOX_HILL_SLOPE 7.93, HEPG2TOX_R_SQUARED 0.604, PBLUC_HILL_SLOPE 0.372, PBLUC_R_SQUARED 0.913, read-out: LUCIFERASE INFECTION ASSAY - IC50”, the IC50 stood at 0.0164 µM.
Regarding `Cc1noc2nc(C3CC3)cc(C(=O)Nc3cccc(C(F)(F)F)c3)c12`, the IC90 was determined as 1.12 µM. For the same compound, the IC50 (PBLUC_HILL_SLOPE 17.7, PBLUC_R_SQUARED 0.604, read-out: LUCIFERASE INFECTION ASSAY - IC50) came out at 0.99 µM.
As for `c1ccc(-c2ccc(C3=Nc4ccccc4SC(c4ccco4)C3)cc2)cc1` (stereo not given), the IC90 is 4.75 µM. The IC50 (FFLUC_HILL_SLOPE 14.5, FFLUC_R_SQUARED 0.557, PBLUC_HILL_SLOPE 1.32, PBLUC_R_SQUARED 0.568, read-out: LUCIFERASE INFECTION ASSAY - IC50) was determined as 0.903 µM.
On to `CCNC(=S)N/N=C1\C(=O)Nc2ccc(C(C)C)cc21`, for which the IC90 is 7.94 µM. Further, under setting [1], the IC50 worked out at 4.21 µM.
As to `Cc1c(S(=O)(=O)c2ccc(Cl)cc2)csc1C(=O)N(c1ccccc1)[S+](C)[O-]` (stereo not given), the IC90 is 2.72 µM. The IC50 (PBLUC_HILL_SLOPE 18.3, PBLUC_R_SQUARED 0.735, read-out: LUCIFERASE INFECTION ASSAY - IC50) stood at 2.41 µM.
Turning to `Cc1ccc(-c2c(C)sc3[nH]c(CN(C)CC(=O)Nc4cccc(C)c4C)nc(=O)c23)cc1`, the IC90 was > 10 µM. Also, under setting [1], the IC50 was > 10 µM.
